In PubChem BioAssay AID248 (DTP/NCI, 2004):
Several values for one entry are separate records, joined by “and”; a condition that tells them apart may be missing. Equal entries are not always repeated. Inconclusive results and toxic doses are left out. No stated cut-off is given here; in the data, active means T/C of 150% or more; inactive means T/C below 125%.

System: L1210 leukemia ip in BDF1 mice, survival T/C
Experiment: NCI In Vivo Anticancer Drug Screen. Data for tumor model L1210 Leukemia (intraperitoneal) in B6D2F1 (BDF1) mice
Conditions: endpoint: mean survival time, higher = longer survival
How it was run: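 Ratio derived from survival: compound-dosed mice over vehicle-dosed mice, all bearing a transplantable tumor.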

[1] = dose: 100.0 mg/kg/injection, schedule: Q04DX002 (ip), vehicle: Klucel (hydroxypropylcellulose) (HPC)
[2] = dose: 100.0 mg/kg/injection, schedule: Q01DX009 (ip), vehicle: Klucel (hydroxypropylcellulose) (HPC)
[3] = dose: 400.0 mg/kg/injection, schedule: Q01DX009 (ip), vehicle: Klucel (hydroxypropylcellulose) (HPC)
[4] = dose: 100.0 mg/kg/injection, schedule: Q04DX003 (ip), vehicle: saline with Tween-80
[5] = dose: 12.5 mg/kg/injection, schedule: Q01DX009 (ip), vehicle: saline
[6] = dose: 25.0 mg/kg/injection, schedule: Q01DX009 (ip), vehicle: saline
[7] = dose: 50.0 mg/kg/injection, schedule: Q01DX009 (ip), vehicle: saline
[8] = dose: 50.0 mg/kg/injection, schedule: Q01DX009 (ip), vehicle: Klucel (hydroxypropylcellulose) (HPC)
[9] = dose: 200.0 mg/kg/injection, schedule: Q01DX009 (ip), vehicle: Klucel (hydroxypropylcellulose) (HPC)
[10] = dose: 200.0 mg/kg/injection, schedule: Q04DX003 (ip), vehicle: saline with Tween-80
[11] = dose: 100.0 mg/kg/injection, schedule: Q01DX009 (ip), vehicle: saline with Tween-80
[12] = dose: 200.0 mg/kg/injection, schedule: Q01DX009 (ip), vehicle: saline with Tween-80
[13] = dose: 400.0 mg/kg/injection, schedule: Q04DX003 (ip), vehicle: saline with Tween-80

Measured: T/C

Cc1cn2nnnc2nc1-c1ccccc1O
inactive: [1] 98 % of control | dose: 200.0 mg/kg/injection, schedule: Q04DX002 (ip), vehicle: Klucel (hydroxypropylcellulose) (HPC) 91 % of control | dose: 400.0 mg/kg/injection, schedule: Q04DX002 (ip), vehicle: Klucel (hydroxypropylcellulose) (HPC) 94 % of control

O=[N+]([O-])c1cc(S(=O)(=O)F)ccc1F
inactive: dose: 0.07 mg/kg/injection, schedule: Q01DX009 (ip), vehicle: carboxymethylcellulose (CMC) 97 % of control | dose: 0.15 mg/kg/injection, schedule: Q01DX009 (ip), vehicle: carboxymethylcellulose (CMC) 100 % of control | dose: 0.31 mg/kg/injection, schedule: Q01DX009 (ip), vehicle: carboxymethylcellulose (CMC) 100 % of control | dose: 0.31 mg/kg/injection, schedule: Q04DX003 (ip), vehicle: carboxymethylcellulose (CMC) 92 % of control | dose: 0.46 mg/kg/injection, schedule: Q01DX009 (ip), vehicle: carboxymethylcellulose (CMC) 103 % of control | dose: 0.62 mg/kg/injection, schedule: Q04DX003 (ip), vehicle: carboxymethylcellulose (CMC) 92 % of control | dose: 0.7 mg/kg/injection, schedule: Q01DX009 (ip), vehicle: carboxymethylcellulose (CMC) 96 % of control | dose: 1.05 mg/kg/injection, schedule: Q01DX009 (ip), vehicle: carboxymethylcellulose (CMC) 92 % of control | dose: 1.5 mg/kg/injection, schedule: Q01DX009 (ip), vehicle: other 94 % of control | dose: 2.3 mg/kg/injection, schedule: Q01DX009 (ip), vehicle: other 89 % of control | dose: 3.4 mg/kg/injection, schedule: Q01DX009 (ip), vehicle: other 89 % of control | dose: 5.0 mg/kg/injection, schedule: Q01DX009 (ip), vehicle: other 87 % of control | dose: 10.0 mg/kg/injection, schedule: Q01DX001 (ip), vehicle: carboxymethylcellulose (CMC) 90 % of control

C/C=C/CC1=C(O)c2ccccc2C(=O)C1=O
inactive: dose: 100.0 mg/kg/injection, schedule: Q01DX001 (ip), vehicle: water 98 % of control

Nc1ncnc(N)c1NC(=O)c1ccc(SCc2ccccc2)cc1
inactive: [2] 93 % of control | [3] 88 % of control

[O-][N+](=C1c2ccccc2-c2ccccc21)c1ccccc1
inactive: dose: 100.0 mg/kg/injection, schedule: Q04DX003 (ip), vehicle: saline 94 % of control | dose: 200.0 mg/kg/injection, schedule: Q04DX003 (ip), vehicle: saline 92 % of control | dose: 400.0 mg/kg/injection, schedule: Q04DX003 (ip), vehicle: saline 94 % of control

CSc1ncc(CO)c(Nc2ccccc2Cl)n1
inactive: dose: 100.0 mg/kg/injection, schedule: Q04DX003 (ip), vehicle: Klucel (hydroxypropylcellulose) (HPC) 103 % of control | dose: 200.0 mg/kg/injection, schedule: Q04DX003 (ip), vehicle: Klucel (hydroxypropylcellulose) (HPC) 103 % of control | dose: 400.0 mg/kg/injection, schedule: Q04DX003 (ip), vehicle: Klucel (hydroxypropylcellulose) (HPC) 95 % of control

CC1=NN(c2ccccc2)C(=O)C1(Br)Br
inactive: [4] 96 % of control

CNCC(C)CN1CCCCCc2ccccc21 (stereo not drawn)
inactive: dose: 3.12 mg/kg/injection, schedule: Q01DX009 (ip), vehicle: saline 100 % of control | dose: 6.25 mg/kg/injection, schedule: Q01DX009 (ip), vehicle: saline 93 % of control | [5] 100 % of control | [6] 97 % of control | [7] 104 % of control

COc1ccc2nc3ccccc3c(NCCCN(C)C)c2c1
inactive: dose: 5.0 mg/kg/injection, schedule: Q01DX001 (ip), vehicle: saline 115 % of control | dose: 10.0 mg/kg/injection, schedule: Q01DX001 (ip), vehicle: saline 115 % of control | dose: 20.0 mg/kg/injection, schedule: Q01DX001 (ip), vehicle: saline 107 % of control | dose: 40.0 mg/kg/injection, schedule: Q01DX001 (ip), vehicle: saline 106 % of control

COc1cc(N(CCCl)CCCl)ccc1/C=N\NC(=O)c1cccnc1
inactive: dose: 25.0 mg/kg/injection, schedule: Q01DX009 (ip), vehicle: Klucel (hydroxypropylcellulose) (HPC) 87 % of control | dose: 50.0 mg/kg/injection, schedule: Q01DX001 (ip), vehicle: saline 105 % of control | [8] 88 % of control | dose: 100.0 mg/kg/injection, schedule: Q01DX001 (ip), vehicle: saline 105 % of control | [2] 90 % of control | dose: 200.0 mg/kg/injection, schedule: Q01DX001 (ip), vehicle: saline 100 % of control | [9] 96 % of control | dose: 400.0 mg/kg/injection, schedule: Q01DX001 (ip), vehicle: saline 97 % of control

CCOCc1cc(Cc2cc(COCC)c3cccnc3c2O)c(O)c2ncccc12
inactive: dose: 75.0 mg/kg/injection, schedule: Q01DX001 (ip), vehicle: carboxymethylcellulose (CMC) 97 % of control | dose: 150.0 mg/kg/injection, schedule: Q01DX001 (ip), vehicle: carboxymethylcellulose (CMC) 105 % of control | dose: 300.0 mg/kg/injection, schedule: Q01DX001 (ip), vehicle: carboxymethylcellulose (CMC) 103 % of control

CSc1cc(C)c(OC(=O)Nc2c(C)cccc2C)c(CO)c1
inactive: [4] 86 % of control | [10] 90 % of control

C1=CC2C=CC1C2
inactive: [11] 97 % of control | [4] 89 % of control | [12] 92 % of control | [10] 92 % of control | dose: 400.0 mg/kg/injection, schedule: Q01DX009 (ip), vehicle: saline with Tween-80 89 % of control | [13] 89 % of control

COc1ccc2cc[n+](C)cc2c1
inactive: [5] 101 % of control | [6] 110 % of control | dose: 25.0 mg/kg/injection, schedule: Q04DX003 (ip), vehicle: saline 100 % of control | [7] 110 % of control | dose: 50.0 mg/kg/injection, schedule: Q04DX003 (ip), vehicle: saline 96 % of control

CC(C)CN(CC(C)C)[N+](=O)[O-]
inactive: dose: 100.0 mg/kg/injection, schedule: Q01DX001 (ip), vehicle: Klucel (hydroxypropylcellulose) (HPC) 97 % of control | dose: 200.0 mg/kg/injection, schedule: Q01DX001 (ip), vehicle: Klucel (hydroxypropylcellulose) (HPC) 114 % of control | dose: 400.0 mg/kg/injection, schedule: Q01DX001 (ip), vehicle: Klucel (hydroxypropylcellulose) (HPC) 97 % of control

CC1(C)C2CCC(CN=C(N)CSS(=O)(=O)O)C1C2 (stereo not drawn)
inactive: dose: 3.13 mg/kg/injection, schedule: Q04DX002 (ip), vehicle: saline with Tween-80 91 % of control | dose: 6.25 mg/kg/injection, schedule: Q04DX002 (ip), vehicle: saline with Tween-80 100 % of control and 107 % of control | dose: 12.5 mg/kg/injection, schedule: Q04DX002 (ip), vehicle: saline with Tween-80 104 % of control | dose: 25.0 mg/kg/injection, schedule: Q04DX002 (ip), vehicle: saline with Tween-80 93 % of control

COC(=O)CCC(=O)c1ccc(OC)cc1
inactive: [2] 94 % of control | [9] 100 % of control | [3] 96 % of control

[O-]c1n[n+](C2CCCCC2)no1
inactive: dose: 5.0 mg/kg/injection, schedule: Q01DX001 (ip), vehicle: other 106 % of control | dose: 10.0 mg/kg/injection, schedule: Q01DX001 (ip), vehicle: other 101 % of control

O=C(CCc1ccc(Cl)cc1)Nc1ccccc1
inactive: dose: 25.0 mg/kg/injection, schedule: Q04DX002 (ip), vehicle: Klucel (hydroxypropylcellulose) (HPC) 97 % of control | dose: 50.0 mg/kg/injection, schedule: Q04DX002 (ip), vehicle: Klucel (hydroxypropylcellulose) (HPC) 86 % of control | [1] 93 % of control

O=c1[nH]c2ccccc2c2ccc(Cl)cc12
inactive: dose: 100.0 mg/kg/injection, schedule: Q01DX001 (ip), vehicle: carboxymethylcellulose (CMC) 103 % of control | dose: 200.0 mg/kg/injection, schedule: Q01DX001 (ip), vehicle: carboxymethylcellulose (CMC) 100 % of control | dose: 400.0 mg/kg/injection, schedule: Q01DX001 (ip), vehicle: carboxymethylcellulose (CMC) 102 % of control

NC(c1ccccc1)c1c(O)ccc2ccccc12 (stereo not drawn)
inactive: dose: 100.0 mg/kg/injection, schedule: Q01DX009 (ip), vehicle: gum acacia 96 % of control | [4] 101 % of control | dose: 200.0 mg/kg/injection, schedule: Q01DX009 (ip), vehicle: gum acacia 98 % of control | [10] 93 % of control | dose: 400.0 mg/kg/injection, schedule: Q01DX009 (ip), vehicle: gum acacia 91 % of control | [13] 98 % of control

CC(C)(C)OC(=O)NC(CSCc1ccccc1)C(=O)O (stereo not drawn)
inactive: [8] 98 % of control | [2] 92 % of control | [11] 91 % of control | [9] 98 % of control | [12] 89 % of control
